Measurements reported in patent US6420172B1, “Method for inducing tumor immunity” (TIB Company, LLC, priority 1992, dated 2002).

Key:
tumor cells = conditions: literature reports; cited from earlier work
transfected C6 cells = experiment: 3H-thymidine incorporation into transfected C6 cells in serum-free medium; assay type: cell-based, rat; conditions: 48 hours, 50 μg/ml
Source text: The mechanism underlying the loss of tumorigenicity for the antisense IGF-1 transfectants is linked to enhanced immunogenicity. Applicant notes a striking infiltration of mononuclear cells surrounding the injected C6 transfected cells in vivo. No such infiltrates ere apparent for the parental (IGF-I positive) cells in he tumors formed in vivo. […] This possibility is substantiated by the examples provided below. This immunological component may exist together with an antiproliferative effect. C6 cellular proliferation is likely to involve factors in addition to IGF-1, however, since the rate of incorporation of ^3H-thymidine into transfected C6 cells cultured for 48 hours in serum-free medium was unaffected by the presence of ZnSO^4 or IGF-I protein (50 μg/ml) in the culture medium (data not shown).

Row | Compound | tumor development in vivo (tumor cells) | rate of incorporation of 3H-thymidine in the presence of IGF-I protein (transfected C6 cells)
1 | C[C@@H](O)[C@@H]1NC(=O)[C@H](CCCCN)NC(=O)[C@@H](Cc2c[nH]c3ccccc23)NC(=O)[C@H](Cc2ccccc2)NC(=O)[C@@H](NC(=O)[C@H](N)Cc2ccccc2)CSSC[C@@H](C(=O)N[C@H](CO)[C@@H](C)O)NC1=O [octreotide] | not blocked | 
2 | IGF-I protein: Insulin-like growth factor I protein added to the culture medium |  | unaffected
